Data taken from patent US8017786B2, “Substituted β-phenyl-α-hydroxy-propanoic acid, synthesis method and use thereof” (Northwest University, priority 2006, dated 2011).

Legend:
Type in all cases: in vivo, rat
[1] = tested on: rats with acute myocardial ischemia; experiment: ST-T segment of ECG in rats with myocardial ischemia
Experimental: (§1) At 0.5 h after the rats of these groups were administered intragastrically, the standard II lead electrocardiogram (before modeling) was recorded, and the height of ST-T segment was measured. The rats of sham operation group were then subjected to coronary artery braid without ligation, and the rats of other groups were subjected to coronary artery ligation in accordance with the following method to establish cute myocardial ischemia models. The rats were subjected to etherization, fixed at supine position, and their normal electrocardiograms (before modeling) were recorded. The skin of left thorax was incised under aseptic conditions, the 4th intercostal muscles were isolated in blunt way, the heart was extruded by light pressure to the right thorax, the left anterior descending coronary artery was ligated at a position 2˜3 mm departing from the left coronary artery origin and between the pulmonary conus and the left auricle of heart, then the heart was sent back to thorax cavity immediately and sutured the incision. Penicillin was smeared topically for the prevention of infections. After operation, the electrocardiogram of postischemia was recorded immediately (at 0 min after modeling), and the height of ST-T segment was measured.

[2] = tested on: rats with middle cerebral artery occlusion; experiment: Cerebral microcirculatory blood flow in rats with middle cerebral artery occlusion
Experimental: 60 SD rats with a body weight of 220±20 g were randomly divided into normal control group, model control group, salvianic acid injection group (ip. 1 mL/kg), and group of bornyl β-(3,4-dihydroxylphenyl)-α-hydroxylpropionate ester at a small, middle and large dose respectively (ip. 5, 15, and 35 mg/kg). The rats of normal group and model group were administered with equal-volume of physiologic saline by ip. The rats were anesthetized by intraperitoneal injection of 1% pentobarbital sodium at an amount of 40 mg/kg, then placed at supine position, head fixed, and cut skin along cervical middle line. Trachea cannula, was inserted into the rats and they were allowed to spontaneous respire. Right common jugular vein and common carotid artery were isolated and a suture was introduced for later use. Animals were fixed on a rat stereotaxic apparatus, a cranial window with a size of 6×8 mm was opened at the right temple with a dental drill, after hemostasis, cerebral dura mater was cut open with scissors to expose cerebral pia mater. The window was covered and sealed with glass and dental cement, and the laser probe of a laser-doppler microcirculatory blood flow meter was fixed on the cranial window. Then the animals were fixed at lateral position, the right common carotid artery was lifted, ligated at the proximal part and carefully cut with scissors, a nylon suture having a diameter of about 0.3 mm was introduced into the artery. The distance between the artery cut and the paropia of the rats was marked before the suture was introduced. […] When the suture arrived at middle cerebral artery, an abrupt decrease of the microcirculatory blood flow would be observed. After the observation of a decrease in the microcirculatory blood flow, the suture was further penetrated by about 1 mm, and the distal end of the cut and the suture in the artery were ligated securely. Spare suture was cut-off. After the end of the test, it was checked whether the nylon suture blocked the initiation site of the middle cerebral artery, and the data of any animal whose artery was not blocked were cancelled. The animals of the control group were not treated. After the cranial window was prepared, the probe of J I2200 type laser-doppler microcirculatory blood flow meter was fixed at the cranial window, and the probe was maintained without displacement and rotation during the whole test. The microcirculatory blood flows before ligation and 5, 15, 30, 45 and 60 min after ligation were recorded, and the data of the animals in the drug-treatment groups were recorded at the same time points. The mean microcirculatory blood flow observed within 1 min at each time point was designated as the microcirculatory blood flow of the respective time point.

[3] = tested on: superoxide dismutase (SOD); experiment: Serum SOD activity in rats with myocardial ischemia; conditions: for SOD: serum, 24 h after ligation
Experimental: as §1

creatine kinase (CK) = experiment: Serum CK activity in rats with myocardial ischemia; conditions: for CK: serum, 24 h after ligation
Experimental: as §1

[4] = tested on: rats with acute myocardial ischemia; experiment: Area of myocardial infarction in rats with acute myocardial ischemia (coronary artery ligation); conditions: 24 h after coronary artery ligation
Experimental: as §1

[5] = 10 mg/kg intragastric, 0 min after modeling
[6] = 10 mg/kg intragastric, 24 h after modeling
[7] = 20 mg/kg intragastric, 0 min after modeling
[8] = 20 mg/kg intragastric, 24 h after modeling
[9] = 40 mg/kg intragastric, 0 min after modeling
[10] = 40 mg/kg intragastric, 24 h after modeling

In the case of `CC1(C)C2CCC1(C)C(OC(=O)C(O)Cc1ccc(O)c(O)c1)C2` (stereo not drawn) [bornyl salvianate ester, bornyl β-(3,4-dihydroxylphenyl)-α-hydroxylpropionate ester], the “Elevation of ST-T segment” value [1, 5] is reported as 0.24 ± 0.24 mV, the “Elevation of ST-T segment, Change rate” value [1, 5] is reported as 95.00 ± 78.34% and the “Elevation of ST-T segment” value [1, 6] is reported as 0.17 ± 0.09 mV. For the same compound, the “Elevation of ST-T segment, Change rate” value [1, 6] was 49.00 ± 36.27%, the “Elevation of ST-T segment” value ([1]; 10 mg/kg intragastric, before modeling) was 0.21 ± 0.06 mV and the “Elevation of ST-T segment” value [1, 7] was 0.13 ± 0.16 mV. For the same compound, the “Elevation of ST-T segment, Change rate” value [1, 7] was 91.61 ± 116.85%, the “Elevation of ST-T segment” value [1, 8] was 0.11 ± 0.10 mV and the “Elevation of ST-T segment, Change rate” value [1, 8] was 60.77 ± 39.69%. The “Elevation of ST-T segment” value ([1]; 20 mg/kg intragastric, before modeling) was 0.17 ± 0.07 mV, the “Elevation of ST-T segment” value [1, 9] was 0.36 ± 0.17 mV and the “Elevation of ST-T segment, Change rate” value [1, 9] was 103.87 ± 148.26%. For the same compound, the “Elevation of ST-T segment” value [1, 10] was 0.18 ± 0.07 mV, the “Elevation of ST-T segment, Change rate” value [1, 10] was 29.01 ± 18.99 % and the “Elevation of ST-T segment” value ([1]; 40 mg/kg intragastric, before modeling) was 0.21 ± 0.06 mV. The Microcirculatory blood flow ([2]; 5 mg/kg ip, 5 min after ligation) was 11.4 ± 5.4 mL, the Microcirculatory blood flow ([2]; 5 mg/kg ip, 15 min after ligation) was 12.4 ± 4.6 mL and the Microcirculatory blood flow ([2]; 5 mg/kg ip, 30 min after ligation) was 12.9 ± 5.1 mL. The Microcirculatory blood flow ([2]; 5 mg/kg ip, 45 min after ligation) was 16.1 ± 4.1 mL, the Microcirculatory blood flow ([2]; 5 mg/kg ip, 60 min after ligation) was 16.0 ± 6.9 mL and the Microcirculatory blood flow ([2]; 15 mg/kg ip, 5 min after ligation) was 9.4 ± 3.7 mL. The Microcirculatory blood flow ([2]; 15 mg/kg ip, 15 min after ligation) was 12.8 ± 5.6 mL, the Microcirculatory blood flow ([2]; 15 mg/kg ip, 30 min after ligation) was 20.7 ± 3.2 mL and the Microcirculatory blood flow ([2]; 15 mg/kg ip, 45 min after ligation) was 25.0 ± 5.2 mL. For the same compound, the Microcirculatory blood flow ([2]; 15 mg/kg ip, 60 min after ligation) was 24.4 ± 4.8 mL, the “cerebral microcirculatory blood flow (in words)” value ([2]; 15 mg/kg, 30 minutes after the administration) was “increased slightly” and the Microcirculatory blood flow ([2]; 35 mg/kg ip, 5 min after ligation) was 10.8 ± 2.7 mL. It also gave a Microcirculatory blood flow ([2]; 35 mg/kg ip, 15 min after ligation) of 19.4 ± 5.1 mL, a Microcirculatory blood flow ([2]; 35 mg/kg ip, 30 min after ligation) of 32.7 ± 6.2 mL and a Microcirculatory blood flow ([2]; 35 mg/kg ip, 45 min after ligation) of 35.4 ± 8.2 mL. The Microcirculatory blood flow ([2]; 35 mg/kg ip, 60 min after ligation) was 35.2 ± 5.8 mL, the “cerebral microcirculatory blood flow (in words)” value ([2]; 35 mg/kg, 15 minutes after the administration) was “increased slightly” and the SOD ([3]; 10 mg/kg intragastric) was 117.66 ± 31.97 U/mL. The SOD ([3]; 20 mg/kg intragastric) was 111.32 ± 20.36 U/mL, the SOD ([3]; 40 mg/kg intragastric) was 119.63 ± 23.53 U/mL and the “superoxide dismutase (SOD) (in words)” value ([3]; especially in the large dose group) was “increased”. It also gave a CK (creatine kinase (CK); 10 mg/kg intragastric) of 1214.2 ± 160.2 U/L, a CK (creatine kinase (CK); 20 mg/kg intragastric) of 894.5 ± 176.3 U/L and a CK (creatine kinase (CK); 40 mg/kg intragastric) of 778.0 ± 177.1 U/L. The “activity of creatine kinase (CK) (in words)” value (creatine kinase (CK); all dose groups, 24 h later) was “decreased”, the Infarct region weight ([4]; 10 mg/kg intragastric) was 0.20 ± 0.05 g and the Non-infarct region weight ([4]; 10 mg/kg intragastric) was 0.47 ± 0.07 g. The “Percentage (infarct cardiac muscles of whole ventricle, by weight)” value (“Percentage” for short) ([4]; 10 mg/kg intragastric) was 30.09 ± 5.69%, the Ventricle weight ([4]; 10 mg/kg intragastric) was 0.68 ± 0.09 g and the Infarct region weight ([4]; 20 mg/kg intragastric) was 0.18 ± 0.05 g. The Non-infarct region weight ([4]; 20 mg/kg intragastric) was 0.49 ± 0.09 g, the “Percentage” value ([4]; 20 mg/kg intragastric) was 25.73 ± 6.35 % and the Ventricle weight ([4]; 20 mg/kg intragastric) was 0.68 ± 0.08 g. For the same compound, the Infarct region weight ([4]; 40 mg/kg intragastric) was 0.18 ± 0.04 g, the Non-infarct region weight ([4]; 40 mg/kg intragastric) was 0.45 ± 0.06 g and the “Percentage” value ([4]; 40 mg/kg intragastric) was 28.95 ± 5.57 %. For the same compound, the Ventricle weight ([4]; 40 mg/kg intragastric) was 0.63 ± 0.07 g.
